From patent US8530493B2, “Indolopyridines as Eg5 kinesin modulators” (4SC AG, priority 2006, dated 2013)

Each compound was assayed on RKO p21 uninduced (proliferating) colon adenocarcinoma cells (assay: Alamar Blue cell viability assay, RKO p21 uninduced (proliferating)). Settings: Homo sapiens, Table B3, anti-proliferative/cytotoxic activity, 72 hours, read-out: −log EC50 RKO p21 uninduced (proliferating) (converted).
Type: cell-based
Method in brief: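 Viability read by Alamar Blue fluorescence (ex 544, em 590 nm), normalised to untreated wells, after 72 h, 37° C, 5% CO2 compound exposure in triplicate. Cells were uninduced (no Ponasterone A), proliferating RKO colon carcinoma p27 or p21 subclones in DMEM with 10% FCS; values are −log EC50 (mol/l).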

Row | SMILES | EC50 [nM]
1 | CCN(CCO)CCN1C(=O)N2[C@H](c3cccc(O)c3)c3[nH]c4cc(F)c(OC)cc4c3C[C@@]2(C)C1=O (racemic) [Example 451, (3aSR,10RS)-2-{2-[Ethyl-(2-hydroxy-ethyl)-amino]-ethyl}-7-fluoro-10-(3-hydroxy-phenyl)-6-methoxy-3a-methyl-3a,4,9,10-tetrahydro-2,9,10a-triaza-cyclopenta[b]fluorene-1,3-dione] | 39.8 to 251
2 | C=CCN(C)CCCN1C(=O)N2[C@H](c3cccc(O)c3)c3[nH]c4ccc(Br)cc4c3C[C@@]2(C)C1=O (racemic) [Example 371, (3aSR,10RS)-2-[3-(Allyl-methyl-amino)-propyl]-6-bromo-10-(3-hydroxy-phenyl)-3a-methyl-3a,4,9,10-tetrahydro-2,9,10a-triaza-cyclopenta[b]fluorene-1,3-dione] | ≤ 39.8
3 | C[C@@]12Cc3c([nH]c4cc(F)c(Cl)cc34)[C@@H](c3cccc(O)c3)N1C(=O)N(CCNCCO)C2=O (racemic) [Example 342, (3aSR,10RS)-6-Chloro-7-fluoro-2-[2-(2-hydroxy-ethylamino)-ethyl]-10-(3-hydroxy-phenyl)-3a-methyl-3a,4,9,10-tetrahydro-2,9,10a-triaza-cyclopenta[b]fluorene-1,3-dione] | ≤ 39.8
4 | CCNCCN1C(=O)N2[C@H](c3cccc(O)c3)c3[nH]c4ccc(OC(F)F)cc4c3C[C@@]2(C)C1=O (racemic) [Example 284, (3aSR,10RS)-6-(1,1-Difluoro-methoxy)-2-(2-ethylamino-ethyl)-10-(3-hydroxy-phenyl)-3a-methyl-3a,4,9,10-tetrahydro-2,9,10a-triaza-cyclopenta[b]fluorene-1,3-dione] | ≤ 39.8
5 | CN(CCO)CCN1C(=O)N2[C@H](c3cccc(O)c3)c3[nH]c4ccc(OC(F)F)cc4c3C[C@@]2(C)C1=O (racemic) [Example 288, (3aSR,10RS)-6-(1,1-Difluoro-methoxy)-2-{2-[(2-hydroxy-ethyl)-methyl-amino]-ethyl}-10-(3-hydroxy-phenyl)-3a-methyl-3a,4,9,10-tetrahydro-2,9,10a-triaza-cyclopenta[b]fluorene-1,3-dione] | 39.8 to 251
6 | CC(=O)N1CCN(CCN2C(=O)N3[C@H](c4cccc(O)c4)c4[nH]c5ccc(Br)cc5c4C[C@@]3(C)C2=O)CC1 (racemic) [Example 387, (3aSR,10RS)-2-[2-(4-Acetyl-piperazin-1-yl)-ethyl]-6-bromo-10-(3-hydroxy-phenyl)-3a-methyl-3a,4,9,10-tetrahydro-2,9,10a-triaza-cyclopenta[b]fluorene-1,3-dione] | ≤ 39.8
7 | CC(C)CNCCN1C(=O)N2[C@H](c3cccc(O)c3)c3[nH]c4cc(F)c(Cl)cc4c3C[C@@]2(C)C1=O (racemic) [Example 340, (3aSR,10RS)-6-Chloro-7-fluoro-10-(3-hydroxy-phenyl)-2-(2-isobutylamino-ethyl)-3a-methyl-3a,4,9,10-tetrahydro-2,9,10a-triaza-cyclopenta[b]fluorene-1,3-dione] | 39.8 to 251
8 | COc1ccc2[nH]c3c(c2c1)C[C@@]1(C)C(=O)N(CCCNC2CC2)C(=O)N1[C@@H]3c1cccc(O)c1 [Example 537, (3aS,10R)-2-(3-Cyclopropylamino-propyl)-10-(3-hydroxy-phenyl)-6-methoxy-3a-methyl-3a,4,9,10-tetrahydro-2,9,10a-triaza-cyclopenta[b]fluorene-1,3-dione] | ≤ 39.8
9 | COc1ccc2[nH]c3c(c2c1F)C[C@@]1(C)C(=O)N(CCNC2CCC2)C(=O)N1[C@@H]3c1cccc(O)c1 (racemic) [Example 413, (3aSR,10RS)-2-(2-Cyclobutylamino-ethyl)-5-fluoro-10-(3-hydroxy-phenyl)-6-methoxy-3a-methyl-3a,4,9,10-tetrahydro-2,9,10a-triaza-cyclopenta[b]fluorene-1,3-dione] | 39.8 to 251
10 | C[C@@]12Cc3c([nH]c4ccc(OC(F)F)cc34)[C@@H](c3cccc(O)c3)N1C(=O)N(CCNCC1CC1)C2=O (racemic) [Example 270, (3aSR,10RS)-2-[2-(Cyclopropylmethyl-amino)-ethyl]-6-(1,1-difluoro-methoxy)-10-(3-hydroxy-phenyl)-3a-methyl-3a,4,9,10-tetrahydro-2,9,10a-triaza-cyclopenta[b]fluorene-1,3-dione] | ≤ 39.8
11 | CN1CCN(CCN2C(=O)N3[C@H](c4cccc(O)c4)c4[nH]c5cc(F)c(Cl)cc5c4C[C@@]3(C)C2=O)CC1 (racemic) [Example 359, (3aSR,10RS)-6-Chloro-7-fluoro-10-(3-hydroxy-phenyl)-3a-methyl-2-[2-(4-methyl-piperazin-1-yl)-ethyl]-3a,4,9,10-tetrahydro-2,9,10a--triaza-cyclopenta[b]fluorene-1,3-dione] | 39.8 to 251
12 | C[C@@]12Cc3c([nH]c4cc(F)c(Cl)cc34)[C@@H](c3cccc(O)c3)N1C(=O)N(CCCN1CCCC1)C2=O (racemic) [Example 476, (3aSR,10RS)-6-Chloro-7-fluoro-10-(3-hydroxy-phenyl)-3a-methyl-2-(3-pyrrolidin-1-yl-propyl)-3a,4,9,10-tetrahydro-2,9,10a-triaza-cyclopenta[b]fluorene-1,3-dione] | ≤ 39.8
13 | COCCNCCN1C(=O)N2[C@H](c3cccc(O)c3)c3[nH]c4cc(F)c(Cl)cc4c3C[C@@]2(C)C1=O (racemic) [Example 343, (3aSR,10RS)-6-Chloro-7-fluoro-10-(3-hydroxy-phenyl)-2-[2-(2-methoxy-ethylamino)-ethyl]-3a-methyl-3a,4,9,10-tetrahydro-2,9,10a-triaza-cyclopenta[b]fluorene-1,3-dione] | ≤ 39.8
14 | CCOc1ccc2[nH]c3c(c2c1)C[C@@]1(C)C(=O)N(CCNC2CC2)C(=O)N1[C@@H]3c1cccc(O)c1 (racemic) [Example 161, (3aSR,10RS)-2-(2-Cyclopropylamino-ethyl)-6-ethoxy-10-(3-hydroxy-phenyl)-3a-methyl-3a,4,9,10-tetrahydro-2,9,10a-triaza-cyclopenta[b]fluorene-1,3-dione] | 39.8 to 251
15 | CCOc1ccc2[nH]c3c(c2c1)C[C@@]1(C)C(=O)N(CCCNC2CC2)C(=O)N1[C@@H]3c1cccc(O)c1 (racemic) [Example 190, (3aSR,10RS)-2-(3-Cyclopropylamino-propyl)-6-ethoxy-10-(3-hydroxy-phenyl)-3a-methyl-3a,4,9,10-tetrahydro-2,9,10a-triaza-cyclopenta[b]fluorene-1,3-dione] | 39.8 to 251
16 | CCOc1ccc2[nH]c3c(c2c1)C[C@@]1(C)C(=O)N(CCNCCOC)C(=O)N1[C@@H]3c1cccc(O)c1 (racemic) [Example 160, (3aSR,10RS)-6-Ethoxy-10-(3-hydroxy-phenyl)-2-[2-(2-methoxy-ethylamino)-ethyl]-3a-methyl-3a,4,9,10-tetrahydro-2,9,10a-triaza-cyclopenta[b]fluorene-1,3-dione] | 39.8 to 251
17 | COCCNCCCN1C(=O)N2[C@H](c3cccc(O)c3)c3[nH]c4ccc(Cl)cc4c3C[C@@]2(C)C1=O (racemic) [Example 185, (3aSR,10RS)-6-Chloro-10-(3-hydroxy-phenyl)-2-[3-(2-methoxy-ethylamino)-propyl]-3a-methyl-3a,4,9,10-tetrahydro-2,9,10a-triaza-cyclopenta[b]fluorene-1,3-dione] | ≤ 39.8
18 | CC(C)CNCCCN1C(=O)N2[C@H](c3cccc(O)c3)c3[nH]c4ccc(OC(F)F)cc4c3C[C@@]2(C)C1=O (racemic) [Example 199, (3aSR,10RS)-6-(1,1-Difluoro-methoxy)-10-(3-hydroxy-phenyl)-2-(3-isobutylamino-propyl)-3a-methyl-3a,4,9,10-tetrahydro-2,9,10a-triaza-cyclopenta[b]fluorene-1,3-dione] | 39.8 to 251
19 | C=CCNCCCN1C(=O)N2[C@H](c3cccc(O)c3)c3[nH]c4ccc(OC(F)F)cc4c3C[C@@]2(C)C1=O (racemic) [Example 206, (3aSR,10RS)-2-(3-Allylamino-propyl)-6-(1,1-difluoro-methoxy)-10-(3-hydroxy-phenyl)-3a-methyl-3a,4,9,10-tetrahydro-2,9,10a-triaza-cyclopenta[b]fluorene-1,3-dione] | 39.8 to 251
20 | CCOc1ccc2[nH]c3c(c2c1)C[C@@]1(C)C(=O)N(CCN2CCCCC2)C(=O)N1[C@@H]3c1cccc(O)c1 (racemic) [Example 164, (3aSR,10RS)-6-Ethoxy-10-(3-hydroxy-phenyl)-3a-methyl-2-(2-piperidin-1-yl-ethyl)-3a,4,9,10-tetrahydro-2,9,10a-triaza-cyclopenta[b]fluorene-1,3-dione] | 39.8 to 251
21 | CCOc1ccc2[nH]c3c(c2c1)C[C@@]1(C)C(=O)N(CCN2CCCCCC2)C(=O)N1[C@@H]3c1cccc(O)c1 (racemic) [Example 166, (3aSR,10RS)-2-(2-Azepan-1-yl-ethyl)-6-ethoxy-10-(3-hydroxy-phenyl)-3a-methyl-3a,4,9,10-tetrahydro-2,9,10a-triaza-cyclopenta[b]fluorene-1,3-dione] | 39.8 to 251
22 | C[C@@]12Cc3c([nH]c4ccc(OC(F)F)cc34)[C@@H](c3cccc(O)c3)N1C(=O)N(CCCNCCO)C2=O (racemic) [Example 201, (3aSR,10RS)-6-(1,1-Difluoro-methoxy)-2-[3-(2-hydroxy-ethylamino)-propyl]-10-(3-hydroxy-phenyl)-3a-methyl-3a,4,9,10-tetrahydro-2,2,10a-triaza-cyclopenta[b]fluorene-1,3-dione] | 39.8 to 251
23 | CCN(CCO)CCCN1C(=O)N2[C@H](c3cccc(O)c3)c3[nH]c4cc(F)c(OC)cc4c3C[C@@]2(C)C1=O (racemic) [Example 315, (3aSR,10RS)-2-{3-[Ethyl-(2-hydroxy-ethyl)-amino]-propyl}-7-fluoro-10-(3-hydroxy-phenyl)-6-methoxy-3a-methyl-3a,4,9,10-tetrahydro-2,9,10a-triaza-cyclopenta[b]fluorene-1,3-dione] | 39.8 to 251
24 | COc1cc2c3c([nH]c2cc1F)[C@@H](c1cccc(O)c1)N1C(=O)N(CCCN2CC=CC2)C(=O)[C@]1(C)C3 (racemic) [Example 323, (3aSR,10RS)-2-[3-(2,5-Dihydro-pyrrol-1-yl)-propyl]-7-fluoro-10-(3-hydroxy-phenyl)-6-methoxy-3a-methyl-3a,4,9,10-tetrahydro-2,9,10a-triaza-cyclopenta[b]fluorene-1,3-dione] | 39.8 to 251
